The source of these data is patent US20260176262A1, “KRAS INHIBITORS, PREPARATION METHOD THEREFOR, AND PHARMACEUTICAL USE THEREOF” (ABBISKO THERAPEUTICS CO., LTD., priority 2021, published 2026).

Each structure is given as a SMILES string. Like-named read-outs stand apart in the source and are kept apart here.

The nature of data set [1]: Pharmacokinetic experiment in mice. As to conditions: male, ICR, mouse, plasma.
Description: ICR mice male N=3 original source: Shanghai Sippr-Bk Lab Animal Co., Ltd.
Single oral (PO) administration in ICR mice: The compounds were weighed and added to the solvent of 0.5% CMC+1% Tween 80 respectively, well shaken, and ultrasonicated to get a light yellow suspension. 3 mice were administered orally after fasting overnight. The dose was 10 mg/kg.
About 90 μL/timepoint blood was collected through the orbital cavity, anticoagulated with sodium heparin, placed on ice after collection, and centrifuged to separate the plasma within 1 hour (centrifugation conditions: 8000 rpm, 6 m 2-8C). The blood collection timepoints were 0, 0.25, 0.5, 1, 2, 4, 6, 8 and 24 h. The samples were stored in a −20° C. refrigerator.
The plasma sample was 40 μL, 160 μL of ice-cold acetonitrile containing internal standard was added, vortexed for 1 minute, and centrifuged at 18,000 rpm for 10 minutes. The supernatant was transferred to a 96-well plate, and 5 μL was injected into LC-MS/MS for analysis.
Data set [2] deals with KRAS^G12D/cRAF (Homo sapiens, UniProt P01116, G12D). The experiment in a line: KRAS G12D/cRAF binding test (Alphalisa). As to conditions: His-tagged KRAS G12D + GMPPNP, GST-tagged cRAF. Put shortly: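 His-tagged KRAS G12D loaded with GMPPNP was incubated with compound (8-point 3-fold series from 5 mM DMSO stock) and then GST-cRAF for 15 min at room temperature. AlphaLISA detection followed after 60 min. IC50 came from a four-parameter fit of signal ratios against the DMSO control.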
Chain of KRAS^G12D/cRAF (P01116 1-188 isoform P01116-2 G12D): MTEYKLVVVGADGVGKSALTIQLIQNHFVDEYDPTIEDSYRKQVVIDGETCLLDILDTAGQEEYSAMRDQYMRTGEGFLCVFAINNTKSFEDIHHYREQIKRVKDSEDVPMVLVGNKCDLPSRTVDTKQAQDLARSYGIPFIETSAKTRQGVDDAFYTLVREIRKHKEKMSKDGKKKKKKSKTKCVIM

Data set [3] concerns AGS cell. The experiment in a line: Anti-proliferative 2D CTG assay, AGS cells. The data set is classed as cell-based. The settings on record: Homo sapiens, 72 h, AGS cells, incubated 3 days, CTG, read-out: AGS cell IC50. Put shortly: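 Cells seeded at 1000/well overnight, then treated with 10-point 1:5 dilutions ([…], 0.1% DMSO) for 3 days at 37° C. Viability read by CellTiter-Glo luminescence; % inhibition versus HPE/ZPE controls, IC50 from four-parameter fit.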

Turning to `C#Cc1c(F)ccc2cc(O)cc(-c3ncc4c(N5C[C@@H]6CC[C@](CC)(C5)N6)nc(OC[C@@]56CCCN5C[C@H](F)C6)nc4c3F)c12` [Example 54, 4-(4-((1R,5S)-1-ethyl-3,8-diazabicyclo[3.2.1]octan-3-yl)-8-fluoro-2-(((2R,7aS)-2-fluorotetrahydro-1H-pyrrolizin-7a(5H)-yl)methoxy)pyrido[4,3-d]pyrimidin-7-yl)-5-eth ynyl-6-fluoronaphthalen-2-ol], the AUC(0-t) in data set [1] (iv, 2 mg/kg) was 460 ng·h/mL; in data set [1] (po, 10 mg/kg), 1160 ng·h/mL. Further, the half-life in data set [1] (iv, 2 mg/kg) was 7.7 h; in data set [1] (po, 10 mg/kg) it was 9.8 h. The molecule further came in with a bioavailability in data set [1] (po, 10 mg/kg) of 51%. In addition, the half-inhibitory concentration (IC50) is 55 nM in data set [2] (numeric values) and 7.3 nM in data set [3] (numeric values).
As to `C#Cc1c(F)ccc2cc(O)cc(-c3ncc4c(N5CC6CCC(C5)N6)nc(OC[C@@]56CCCN5C[C@H](F)C6)nc4c3F)c12` [Positive Compounds, reference compound], in data set [1] (iv, 2 mg/kg), the AUC(0-t) was 337 ng·h/mL and the half-life is 3.1 h. Besides, in data set [1] (po, 10 mg/kg), the AUC(0-t) amounted to 40 ng·h/mL, the bioavailability was 2.4% and the half-life is 1.6 h.
The matching figures for `[2H]C([2H])([2H])OC[C@]12CC[C@H](CN(c3nc(OC[C@@]45CCCN4C[C@H](F)C5)nc4c(F)c(-c5cc(O)cc6ccc(F)c(C#C)c56)nc(OCC)c34)C1)N2` [Example 51, 4-(5-ethoxy-8-fluoro-2-(((2R,7aS)-2-fluorotetrahydro-1H-pyrrolizin-7a(5H)-yl)methoxy)-4-((1S,5R)-1-((methoxy-d3)methyl)-3,8-diazabicyclo[3.2.1]octan-3-yl)pyrido[4,3-d]pyrimidin-7-yl)-5-ethynyl-6-fluoronaphthalen-2-ol]: 1570 ng·h/mL, 5.4 h, 1120 ng·h/mL, 28% and 6.2 h.
As for `[2H]C([2H])([2H])OC[C@@]12CC[C@@H](CN(c3nc(OC[C@@]45CCCN4C[C@H](F)C5)nc4c(F)c(-c5cc(O)cc6ccc(F)c(C#C)c56)nc(OC)c34)C1)N2` [Example 50, 5-ethynyl-6-fluoro-4-(8-fluoro-2-(((2R,7aS)-2-fluorotetrahydro-1H-pyrrolizin-7a(5H)-yl)methoxy)-5-methoxy-4-((1R,5S)-1-((methoxy-d3)methyl)-3,8-diazabicyclo[3.2.1]octan-3-yl)pyrido[4,3-d]pyrimidin-7-yl)naphthalen-2-ol], in data set [1] (iv, 2 mg/kg), the AUC(0-t) was 1100 ng·h/mL and the half-life is 6.7 h. In data set [1] (po, 10 mg/kg), this molecule gave an AUC(0-t) of 2660 ng·h/mL, a bioavailability of 48% and a half-life of 6.4 h. The concentration for half-maximal inhibition (IC50) in data set [2] (numeric values) came to 10 nM. The concentration for half-maximal inhibition (IC50) in data set [3] (numeric values) was 6.5 nM.
On to `C#Cc1c(F)ccc2cc(O)cc(-c3ncc4c(N5C[C@H]6CC[C@@](CCF)(C5)N6)nc(OC[C@@]56CCCN5C[C@H](F)C6)nc4c3F)c12` [Example 55, 5-ethynyl-6-fluoro-4-(8-fluoro-4-((1R,5R)-1-(2-fluoroethyl)-3,8-diazabicyclo[3.2.1]octan-3-yl)-2-(((2R,7aS)-2-fluorotetrahydro-1H-pyrrolizin-7a(5H)-yl)methoxy)pyrido[4,3-d]pyrimidin-7-yl)naphthalen-2-ol], for which, in data set [1] (po, 10 mg/kg), the area under the curve AUC(0-t) was 296 ng·h/mL and the half-life was 7.4 h. For the same molecule, the IC50 in data set [3] (class symbols) was in the range of 50 to 500 nM.
Turning to `C#Cc1c(F)ccc2cc(O)cc(-c3ncc4c(N5CC6CCC(CS(C)(=O)=O)(C5)N6)nc(OC[C@@]56CCCN5C[C@H](F)C6)nc4c3F)c12` (stereo partly drawn) [Example 11, 5-ethynyl-6-fluoro-4-(8-fluoro-2-(((2R,7aS)-2-fluorotetrahydro-1H-pyrrolizin-7a(5H)-yl)methoxy)-4-(1-((methanesulfonyl)methyl)-3,8-diazabicyclo[3.2.1]octan-3-yl)pyrido[4,3-d]pyrimidin-7-yl)naphthalen-2-ol], the IC50 in data set [2] (class symbols) and in data set [3] (class symbols) was greater than 500 nM in each case.
